Assay results published in ChEMBL document CHEMBL1147462, “Exploring QSAR of melatonin receptor ligand benzofuran derivatives using E-state index” (Bioorg Med Chem Lett, 2004).

Legend:
[1] = molecular target: T1, Melatonin receptor (Homo sapiens) (UniProt P48039+P49286); assay: Selectivity (pC2-PC1) was determined; assay type: protein assay
[2] = molecular target: Melatonin receptor type 1A (Homo sapiens) (UniProt P48039); assay: Binding affinity against Melatonin receptor type 1A
[3] = molecular target: T2, Melatonin receptor type 1B (Homo sapiens) (UniProt P49286); assay: Binding affinity against melatonin receptor type 1B
T2 sequence (whole entry): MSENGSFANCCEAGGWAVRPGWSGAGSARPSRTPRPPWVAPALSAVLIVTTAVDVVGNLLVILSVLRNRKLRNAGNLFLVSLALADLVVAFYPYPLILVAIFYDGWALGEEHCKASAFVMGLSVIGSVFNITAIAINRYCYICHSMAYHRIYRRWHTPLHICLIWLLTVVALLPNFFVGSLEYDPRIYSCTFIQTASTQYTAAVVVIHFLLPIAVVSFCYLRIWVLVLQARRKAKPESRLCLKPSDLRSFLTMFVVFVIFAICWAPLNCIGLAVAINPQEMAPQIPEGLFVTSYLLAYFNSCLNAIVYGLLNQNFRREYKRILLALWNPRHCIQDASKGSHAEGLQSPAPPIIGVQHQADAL

[4] = molecular target: T1, Melatonin receptor (Homo sapiens); assay: Binding affinity against melatonin (MT1) receptor (pC1); assay type: protein assay

Sequence of Melatonin receptor type 1A (Homo sapiens) (P48039 whole entry): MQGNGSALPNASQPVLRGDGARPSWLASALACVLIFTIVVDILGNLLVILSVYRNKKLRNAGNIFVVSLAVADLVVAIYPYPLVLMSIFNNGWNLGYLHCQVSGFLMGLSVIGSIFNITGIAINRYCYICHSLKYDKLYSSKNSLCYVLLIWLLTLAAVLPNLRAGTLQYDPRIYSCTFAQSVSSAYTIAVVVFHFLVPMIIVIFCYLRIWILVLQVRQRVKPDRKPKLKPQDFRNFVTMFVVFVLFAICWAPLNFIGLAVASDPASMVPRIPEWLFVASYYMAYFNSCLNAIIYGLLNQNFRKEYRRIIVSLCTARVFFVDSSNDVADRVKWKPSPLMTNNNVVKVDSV
T1 sequence (P48039 whole entry, looked up, one chain of several): as the sequence (P48039 whole entry) above

For `COc1ccc2oc(Cc3cc(C(F)(F)F)cc(C(F)(F)F)c3)c(CCNC(C)=O)c2c1`, which Selectivity [1] is on record?
The Selectivity was 0.147.

What about the pC1 [2] of the same compound?
Its pC1 is 0.322.

What about the pC1 [3] of the same compound?
Its pC1 is 0.469.

For `CCc1ccc2oc(Cc3cccc(OC)c3)c(CCNC(C)=O)c2c1`, which Selectivity [1] is on record?
Its Selectivity is 1.23.

What about the pC1 [2] of the same compound?
The pC1 was 0.541.

What about the pC1 [3] of the same compound?
Its pC1 is 1.77.

Which results are given for `COc1ccc2oc(-c3ccccc3)c(CCNC(=O)Cc3ccco3)c2c1`?
Selectivity [1]: -1.45; pC1 [2]: 1.89; pC1 [3]: 0.442

How did the Selectivity [1] turn out when `C=CC(=O)NCCc1c(Cc2cccc(OC)c2)oc2ccc(OC)cc12` was run?
Its Selectivity is 1.3.

And the pC1 [2]?
The pC1 was 1.26.

What about the pC1 [3] of the same compound?
The pC1 was 2.56.

For `CCc1ccc2oc(Cc3ccccc3)c(CCNC(C)=O)c2c1`, which Selectivity [1] is on record?
Its Selectivity is 0.893.

And the pC1 [2]?
The pC1 was 1.19.

And the pC1 [3]?
Its pC1 is 2.08.

For `COc1ccc2oc(Cc3cccc(F)c3)c(CCNC(C)=O)c2c1`, which Selectivity [1] is on record?
The Selectivity was 0.513.

And the pC1 [2]?
Its pC1 is 3.12.

What about the pC1 [3] of the same compound?
The pC1 was 3.64.

What does the source list for `C=CCC(=O)NCCc1c(Cc2ccccc2)oc2ccc(OC)cc12`?
Selectivity [1]: 1.77; pC1 [2]: 2.46; pC1 [3]: 4.22

`C/C=C/C(=O)NCCc1c(-c2ccccc2)oc2ccc(OC)cc12` was tested. Which Selectivity [1] did it give?
Its Selectivity is 0.682.

And the pC1 [2]?
The pC1 was 3.

And the pC1 [3]?
Its pC1 is 3.68.

Which Selectivity [1] does the source give for `COc1ccc2oc(Cc3cccc(Cl)c3)c(CCNC(C)=O)c2c1` here?
Its Selectivity is 1.51.

And the pC1 [2]?
The pC1 was 2.14.

What about the pC1 [3] of the same compound?
The pC1 was 3.66.

`COc1ccc2oc(Cc3ccccc3OC)c(CCNC(C)=O)c2c1` was tested. Which Selectivity [1] did it give?
The Selectivity was 2.1.

What about the pC1 [2] of the same compound?
Its pC1 is 1.84.

What about the pC1 [3] of the same compound?
The pC1 was 3.47.

Which Selectivity [1] does the source give for `CC(=O)NCCc1c(Cc2ccccc2)oc2ccccc12` here?
Its Selectivity is 1.17.

What about the pC1 [2] of the same compound?
The pC1 was 0.81.

What about the pC1 [3] of the same compound?
The pC1 was 1.98.

`COc1cccc(Cc2oc3ccccc3c2CCNC(C)=O)c1` was tested. Which Selectivity [1] did it give?
The Selectivity was 1.09.

What about the pC1 [2] of the same compound?
The pC1 was 0.64.

And the pC1 [3]?
The pC1 was 1.73.

Which Selectivity [1] does the source give for `COc1ccc2oc(-c3ccccc3)c(CCNC(C)=O)c2c1` here?
The Selectivity was -0.301.

What about the pC1 [2] of the same compound?
Its pC1 is 5.

And the pC1 [3]?
The pC1 was 4.7.

`COc1ccc2oc(Cc3ccccc3)c(CCNC(=O)c3ccco3)c2c1` was tested. Which Selectivity [1] did it give?
Its Selectivity is 1.28.

What about the pC1 [2] of the same compound?
Its pC1 is 0.156.

What about the pC1 [3] of the same compound?
Its pC1 is 1.44.

For `COc1ccc2oc(Cc3cccc(C(F)(F)F)c3)c(CCNC(C)=O)c2c1`, which Selectivity [1] is on record?
Its Selectivity is 1.83.

And the pC1 [2]?
Its pC1 is 1.1.

And the pC1 [3]?
The pC1 was 2.93.

With `CNC(=O)NCCc1c(Cc2ccccc2)oc2ccc(OC)cc12` as the compound, how does the Selectivity [1] read?
Its Selectivity is 1.19.

What about the pC1 [2] of the same compound?
The pC1 was 2.27.

What about the pC1 [3] of the same compound?
The pC1 was 3.46.

Which results are given for `C=CC(=O)NCCc1c(-c2ccccc2)oc2ccc(OC)cc12`?
Selectivity [1]: 0.301; pC1 [2]: 4.7; pC1 [3]: 5

Which results are given for `CCCCCCOc1ccc2oc(Cc3ccccc3)c(CCNC(C)=O)c2c1`?
Selectivity [1]: 0.407; pC1 [2]: 2.09; pC1 [3]: 2.49

How did the Selectivity [1] turn out when `COc1ccc2oc(CC3CCCCC3)c(CCNC(C)=O)c2c1` was run?
The Selectivity was 1.43.

What about the pC1 [2] of the same compound?
Its pC1 is 1.18.

And the pC1 [3]?
The pC1 was 2.6.

Which pC1 [4] does the source give for `CNC(=O)NCCc1c(-c2ccccc2)oc2ccc(OC)cc12` here?
Its pC1 is 4.4.

What about the Selectivity [1] of the same compound?
Its Selectivity is 0.

And the pC1 [3]?
Its pC1 is 4.4.

With `CC(=O)NCCc1c(Cc2ccccc2)oc2ccc(O)cc12` as the compound, how does the Selectivity [1] read?
The Selectivity was 0.852.

And the pC1 [2]?
The pC1 was 0.245.

And the pC1 [3]?
The pC1 was 1.1.

How did the Selectivity [1] turn out when `COc1ccc2oc(CCCc3ccccc3)c(CCNC(C)=O)c2c1` was run?
Its Selectivity is 1.32.

What about the pC1 [2] of the same compound?
The pC1 was 1.5.

What about the pC1 [3] of the same compound?
The pC1 was 2.82.

Which Selectivity [1] does the source give for `COc1ccc2oc(Cc3c(Cl)cccc3Cl)c(CCNC(C)=O)c2c1` here?
Its Selectivity is 0.82.

What about the pC1 [2] of the same compound?
The pC1 was 1.07.

What about the pC1 [3] of the same compound?
The pC1 was 1.89.

For `COc1ccc(Cc2oc3ccc(OC)cc3c2CCNC(C)=O)cc1`, which Selectivity [1] is on record?
The Selectivity was 1.68.

And the pC1 [2]?
The pC1 was 1.62.

And the pC1 [3]?
The pC1 was 3.3.

Which results are given for `C=CC(=O)NCCc1c(Cc2ccccc2)oc2ccc(OC)cc12`?
Selectivity [1]: 1.89; pC1 [2]: 1.27; pC1 [3]: 3.16

What does the source list for `COc1cccc(Cc2oc3ccc(OC)cc3c2CCNC(C)=O)c1`?
Selectivity [1]: 2.1; pC1 [3]: 3.5

`CCCCCOc1ccc2oc(Cc3ccccc3)c(CCNC(C)=O)c2c1` was tested. Which Selectivity [1] did it give?
Its Selectivity is 0.642.

What about the pC1 [2] of the same compound?
The pC1 was 1.37.

What about the pC1 [3] of the same compound?
Its pC1 is 2.01.

How did the Selectivity [1] turn out when `C=CCC(=O)NCCc1c(-c2ccccc2)oc2ccc(OC)cc12` was run?
The Selectivity was -0.301.

What about the pC1 [2] of the same compound?
The pC1 was 5.

What about the pC1 [3] of the same compound?
Its pC1 is 4.7.

With `CCCC(=O)NCCc1c(Cc2ccccc2)oc2ccc(OC)cc12` as the compound, how does the Selectivity [1] read?
The Selectivity was 1.22.

And the pC1 [2]?
The pC1 was 2.48.

And the pC1 [3]?
Its pC1 is 3.7.

Which Selectivity [1] does the source give for `COc1ccc2oc(Cc3ccccc3)c(CCNC(=O)CI)c2c1` here?
The Selectivity was 1.32.

And the pC1 [2]?
Its pC1 is 2.06.

And the pC1 [3]?
The pC1 was 3.39.
